Reference: patent US6600063B1, “Derivatives of phenyl 4-aminosalicylate and method of making the same” (priority 2000, dated 2003)
≈ marks a conversion by molar mass, not a printed value.

How the values were obtained:
Test in all cases: microbe, parasite or virus in culture
Format in all cases: cell-based
[1] = test system: M. tuberculosis strain resistant to isoniazid (ATCC 35822); details: Mycobacterium tuberculosis, ATCC35822, read-out: MIC INH-R (ug/ml)
[2] = test system: M. tuberculosis strain resistant to rifampin (ATCC 35838); details: Mycobacterium tuberculosis, ATCC35838, read-out: MIC RMP-R (ug/ml)
[3] = test system: M. tuberculosis ETA-R strain; details: Mycobacterium tuberculosis, read-out: MIC ETA-R (ug/ml)
[4] = test system: M. tuberculosis EMB-R strain; details: Mycobacterium tuberculosis, read-out: MIC EMB-R (ug/ml)

Compound: O=C(Oc1ccccc1)c1ccc(NC(=S)Nc2ccccc2)cc1O [SAMPLE ID 131326]
- MIC [1]: ≤ 0.1 µg/mL
- MIC [2]: 0.2 µg/mL (≈ 0.549 µM)
- MIC [3]: 0.2 µg/mL (≈ 0.549 µM)
- MIC [4]: 0.2 µg/mL (≈ 0.549 µM)
